Eleven compounds from patent US10899737B2, “Piperazine carbamates and methods of making and using same” (Lundbeck La Jolla Research Center, Inc., priority 2016, dated 2021) can be followed below.

The target in experiment [1] is T1, MAGL (Homo sapiens, UniProt Q99685).
T1 construct: Proteomes (human prefrontal cortex or cell membrane fractions); from tissue
T1 sequence (Q99685 1-303): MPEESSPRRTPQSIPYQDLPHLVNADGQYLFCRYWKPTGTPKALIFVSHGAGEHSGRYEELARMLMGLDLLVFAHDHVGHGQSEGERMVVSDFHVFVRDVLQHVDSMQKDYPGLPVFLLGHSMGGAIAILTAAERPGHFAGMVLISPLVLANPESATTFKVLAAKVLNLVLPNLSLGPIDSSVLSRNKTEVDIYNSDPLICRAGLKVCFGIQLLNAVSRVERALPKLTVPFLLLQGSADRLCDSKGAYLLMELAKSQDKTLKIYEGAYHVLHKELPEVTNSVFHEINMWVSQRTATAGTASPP
The experiment in a line: In vitro competitive activity-based protein profiling (human), MAGL. The settings on record: for inhibition at 1 µM: 1 μM inhibitor, human proteome, 30 min preincubation at 37° C, read-out: MAGL % inh. 1 μM (human); for IC50: human PC3. The experiment is classed as biochemical. The essentials:
(§1)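 Human prefrontal cortex or cell membrane proteomes (1.0-2.0 mg/mL protein) preincubated 30 min at 37° C with inhibitor, then labeled 30 min RT with FP-Rh or JW912 probe. After SDS-PAGE, activity taken from fluorescent band intensity for each enzyme.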

Experiment [2] has as its target T2, ABHD6 (Homo sapiens, UniProt Q9BV23).
T2 construct: Proteomes (human prefrontal cortex or cell membrane fractions); endogenous in cells; human prefrontal cortex
T2 sequence (Q9BV23 1-337): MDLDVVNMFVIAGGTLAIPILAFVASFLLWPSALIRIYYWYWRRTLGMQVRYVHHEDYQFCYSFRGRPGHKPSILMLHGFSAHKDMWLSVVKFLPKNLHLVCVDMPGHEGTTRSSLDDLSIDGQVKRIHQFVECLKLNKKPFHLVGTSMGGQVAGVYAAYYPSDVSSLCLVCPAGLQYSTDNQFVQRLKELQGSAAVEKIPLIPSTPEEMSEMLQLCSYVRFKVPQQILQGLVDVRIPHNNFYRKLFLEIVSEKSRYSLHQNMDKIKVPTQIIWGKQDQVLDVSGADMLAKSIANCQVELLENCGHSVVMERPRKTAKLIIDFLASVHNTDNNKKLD
Put plainly: In vitro competitive activity-based protein profiling (human), ABHD6. In kind it is biochemical. The settings on record: human PC3. The essentials: as §1

The target in experiment [3] is T3, MAGL (Mus musculus, UniProt O35678).
T3 construct: Proteomes (mouse brain membrane fraction or cell lysates); from tissue; host or cells: mouse brain membrane fraction or cell lysates
T3 sequence (O35678 1-303): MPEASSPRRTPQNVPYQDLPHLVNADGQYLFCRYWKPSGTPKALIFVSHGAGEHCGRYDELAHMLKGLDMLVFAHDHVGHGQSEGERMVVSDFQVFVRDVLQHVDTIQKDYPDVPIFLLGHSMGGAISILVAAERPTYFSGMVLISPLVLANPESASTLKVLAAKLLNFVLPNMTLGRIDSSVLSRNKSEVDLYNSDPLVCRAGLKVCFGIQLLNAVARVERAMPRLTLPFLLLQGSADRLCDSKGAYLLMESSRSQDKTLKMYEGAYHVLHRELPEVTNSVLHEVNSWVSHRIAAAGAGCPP
The experiment in a line: In vitro competitive activity-based protein profiling (mouse), MAGL. The experiment is classed as biochemical. The note with it: for inhibition at 1 µM: 1 μM inhibitor, mouse brain membrane fraction or cell lysates, read-out: MAGL % inh. 1 μM (mouse); for IC50: mouse proteome. The essentials: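 Mouse brain membrane fraction or cell lysate proteomes (50 μL, 1.0 mg/mL total protein) were preincubated with inhibitors at varying concentrations for 30 min at 37° C. FP-Rh (1.0 μL, 50 μM in DMSO) was then added for a further 30 min at 37° C. Samples were quenched with 4× SDS loading buffer and resolved by SDS-PAGE. MAGL activity was quantified from fluorescent gel band intensity using ImageJ 1.49 k.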

The target in experiment [4] is T4, ABHD6 (Mus musculus, UniProt Q8R2Y0).
T4 construct: Proteomes (mouse brain membrane fraction or cell lysates); from tissue; host or cells: mouse brain membrane fraction or cell lysates
T4 sequence (Q8R2Y0 1-336): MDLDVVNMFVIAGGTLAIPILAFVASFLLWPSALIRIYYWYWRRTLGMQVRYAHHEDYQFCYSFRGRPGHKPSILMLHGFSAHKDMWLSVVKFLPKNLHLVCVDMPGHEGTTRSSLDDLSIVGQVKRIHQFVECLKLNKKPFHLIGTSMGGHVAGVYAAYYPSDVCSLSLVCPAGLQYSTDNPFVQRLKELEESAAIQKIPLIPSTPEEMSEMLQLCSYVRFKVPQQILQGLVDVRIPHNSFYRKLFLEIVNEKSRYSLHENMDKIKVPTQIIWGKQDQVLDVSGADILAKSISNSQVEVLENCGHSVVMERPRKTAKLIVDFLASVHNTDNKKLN
Put plainly: In vitro competitive activity-based protein profiling (mouse), ABHD6. In kind it is biochemical. The note with it: 1 μM inhibitor, mouse brain membrane fraction or cell lysates; read-out: ABHD6 % inh. 1 μM (mouse). Summed up: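 Mouse brain membrane proteome or cell lysate (1.0 mg/mL protein) preincubated 30 min at 37 °C with inhibitor, then labelled 30 min at 37 °C with FP-rhodamine probe. Remaining MAGL and ABHD6 activity quantified by in-gel fluorescence band intensity after SDS-PAGE; values are % inhibition at 1 μM.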

Experiment [5] concerns the target T3, MAGL. Put plainly: Mouse brain proteomes from inhibitor treated mice, MAGL inhibition. The experiment is classed as in vivo. The note with it: 5 mg/kg oral gavage, C57Bl/6J mouse brain, 4 h following administration; read-out: MAGL % inh. 5 mg/kg (mouse). As to the method: Preparation of Mouse Brain Proteomes from Inhibitor Treated Mice.
Inhibitors were administered to wild-type C57Bl/6J by oral gavage in a vehicle of polyethylene glycol. Each animal was sacrificed 4 h following administration and brain proteomes were prepared and analyzed according to previously established methods (See Niphakis, M. J., et al. (2011) ACS Chem. Neurosci. and Long, J. Z., et al. Nat. Chem. Biol. 5:37-44).

`O=C(O)CN1CCC(c2cc(C(F)(F)F)ccc2CN2CCN(C(=O)OC(C(F)(F)F)C(F)(F)F)CC2)C1` (stereo not drawn) [Example 2, 2-(3-(2-((4-(((1,1,1,3,3,3-Hexafluoropropan-2-yl)oxy)carbonyl)piperazin-1-yl)methyl)-5-(trifluoromethyl)phenyl)pyrrolidin-1-yl)acetic Acid]: the inhibition at 1 µM was at least 75% on MAGL [1], at least 75% at MAGL [3] and 0 to 25% on ABHD6 [4]. Besides, the IC50 was at most 0.1 µM at MAGL [1] and 1 to 10 µM on ABHD6 [2]. Besides, the inhibition at 5 mg/kg on MAGL [5] fell in the range of 50 to 75%.
On to `O=C(O)Cn1ccc(-c2cc(C(F)(F)F)ccc2CN2CCN(C(=O)OC(C(F)(F)F)C(F)(F)F)CC2)n1` [Example 3, 2-(3-(2-((4-(((1,1,1,3,3,3-Hexafluoropropan-2-yl)oxy)carbonyl)piperazin-1-yl)methyl)-5-(trifluoromethyl)phenyl)-1H-pyrazol-1-yl)acetic Acid], for which the inhibition at 1 µM at MAGL [1], at MAGL [3] and at ABHD6 [4] was at least 75% in each case. Besides, the IC50 at MAGL [1] is at most 0.1 µM; on ABHD6 [2] it was 0.1 to 1 µM; on MAGL [3], at most 0.1 µM. Besides, at MAGL [5], the inhibition at 5 mg/kg is 0 to 25%.
For the compound `O=C(OC(C(F)(F)F)C(F)(F)F)N1CCN(Cc2ccc(C(F)(F)F)cc2C2(C(=O)O)CCCC2)CC1` [Example 4, 1-(2-((4-(((1,1,1,3,3,3-Hexafluoropropan-2-yl)oxy)carbonyl)piperazin-1-yl)methyl)-5-(trifluoromethyl)phenyl)cyclopentane-1-carboxylic Acid], the results for the inhibition at 1 µM on MAGL [1], at MAGL [3] and at ABHD6 [4] were at least 75%, at least 75% and 0 to 25%, respectively. The 50% inhibitory concentration (IC50) on MAGL [1] is at most 0.1 µM; on ABHD6 [2], 1 to 10 µM; at MAGL [3], at most 0.1 µM. Also, the inhibition at 5 mg/kg at MAGL [5] is at least 75%.
`CCC(C(=O)O)n1cc(-c2cc(C(F)(F)F)ccc2CN2CCN(C(=O)OC(C(F)(F)F)C(F)(F)F)CC2)cn1` (stereo not drawn) [Example 5, 2-(4-(2-((4-(((1,1,1,3,3,3-Hexafluoropropan-2-yl)oxy)carbonyl)piperazin-1-yl)methyl)-5-(trifluoromethyl)phenyl)-1H-pyrazol-1-yl)butanoic Acid]: the inhibition at 1 µM at MAGL [1], on MAGL [3] and at ABHD6 [4] was at least 75% throughout. In addition, the results for the IC50 at MAGL [1] and at ABHD6 [2] were at most 0.1 µM and 0.1 to 1 µM, respectively. The inhibition at 5 mg/kg at MAGL [5] was in the range of 0 to 25%.
Consider `O=C(O)Cn1cc(-c2cc(C(F)(F)F)ccc2CN2CCN(C(=O)OC(C(F)(F)F)C(F)(F)F)CC2)cn1` [Example 6, 2-(4-(2-((4-(((1,1,1,3,3,3-Hexafluoropropan-2-yl)oxy)carbonyl)piperazin-1-yl)methyl)-5-(trifluoromethyl)phenyl)-1H-pyrazol-1-yl)acetic Acid], for which the inhibition at 1 µM on MAGL [1], on MAGL [3] and on ABHD6 [4] was at least 75% each time. Also, the figures for the IC50 at MAGL [1], at ABHD6 [2] and at MAGL [3] were at most 0.1 µM, 1 to 10 µM and at most 0.1 µM, respectively. Further, at MAGL [5], the inhibition at 5 mg/kg is 0 to 25%.
`O=C(O)[C@@H]1CC(c2cc(C(F)(F)F)ccc2CN2CCN(C(=O)OC(C(F)(F)F)C(F)(F)F)CC2)CN1` (stereo partly drawn) [Example 7, (2S)-4-(2-((4-(((1,1,1,3,3,3-Hexafluoropropan-2-yl)oxy)carbonyl)piperazin-1-yl)methyl)-5-(trifluoromethyl)phenyl)pyrrolidine-2-carboxylic Acid]: the inhibition at 1 µM on MAGL [1] is at least 75%; at MAGL [3], at least 75%; at ABHD6 [4], 25 to 50%. Besides, the IC50 on MAGL [1] was at most 0.1 µM; at ABHD6 [2], 1 to 10 µM. Besides, the inhibition at 5 mg/kg on MAGL [5] fell in the range of 25 to 50%.
Regarding `O=C(O)c1ccsc1-c1cc(C(F)(F)F)ccc1CN1CCN(C(=O)OC(C(F)(F)F)C(F)(F)F)CC1` [Example 8, 2-(2-((4-(((1,1,1,3,3,3-Hexafluoropropan-2-yl)oxy)carbonyl)piperazin-1-yl)methyl)-5-(trifluoromethyl)phenyl)thiophene-3-carboxylic Acid], the results for the inhibition at 1 µM at MAGL [1], on MAGL [3] and on ABHD6 [4] were at least 75%, at least 75% and 25 to 50%, respectively. The figures for the IC50 on MAGL [1] and at ABHD6 [2] were at most 0.1 µM and 1 to 10 µM, respectively. Also, the inhibition at 5 mg/kg at MAGL [5] was at least 75%.
On to `Cc1cc(C(=O)O)sc1-c1cc(C(F)(F)F)ccc1CN1CCN(C(=O)OC(C(F)(F)F)C(F)(F)F)CC1` [Example 9, 5-(2-((4-(((1,1,1,3,3,3-Hexafluoropropan-2-yl)oxy)carbonyl)piperazin-1-yl)methyl)-5-(trifluoromethyl)phenyl)-4-methylthiophene-2-carboxylic Acid], for which the figures for the inhibition at 1 µM on MAGL [1], on MAGL [3] and on ABHD6 [4] were at least 75%, at least 75% and 50 to 75%, respectively. The figures for the IC50 on MAGL [1] and at ABHD6 [2] were at most 0.1 µM and 1 to 10 µM, respectively. The inhibition at 5 mg/kg on MAGL [5] lay in the range of 25 to 50%.
Consider `O=C(O)c1csc(-c2cc(C(F)(F)F)ccc2CN2CCN(C(=O)OC(C(F)(F)F)C(F)(F)F)CC2)c1` [Example 10, 5-(2-((4-(((1,1,1,3,3,3-Hexafluoropropan-2-yl)oxy)carbonyl)piperazin-1-yl)methyl)-5-(trifluoromethyl)phenyl)thiophene-3-carboxylic Acid], for which the inhibition at 1 µM at MAGL [1], at MAGL [3] and on ABHD6 [4] was at least 75% each time. For the same compound, the values for the IC50 on MAGL [1] and at ABHD6 [2] were at most 0.1 µM and 1 to 10 µM, respectively. Moreover, the inhibition at 5 mg/kg on MAGL [5] is 0 to 25%.
Consider `O=C(O)Cn1ccc(-c2cc(Cl)ccc2CN2CCN(C(=O)OC(C(F)(F)F)C(F)(F)F)CC2)n1` [Example 12, 2-(3-(5-Chloro-2-((4-(((1,1,1,3,3,3-hexafluoropropan-2-yl)oxy)carbonyl)piperazin-1-yl)methyl)phenyl)-1H-pyrazol-1-yl)acetic Acid], for which the inhibition at 1 µM at MAGL [1] is at least 75%; at MAGL [3], at least 75%; on ABHD6 [4], 0 to 25%. For the same compound, the IC50 at MAGL [1] was at most 0.1 µM; on ABHD6 [2], 0.1 to 1 µM. Moreover, the inhibition at 5 mg/kg at MAGL [5] fell in the range of 0 to 25%.
Regarding `O=C(O)Cn1ccc(-c2cc(F)ccc2CN2CCN(C(=O)OC(C(F)(F)F)C(F)(F)F)CC2)n1` [Example 13, 2-(3-(5-Fluoro-2-((4-(((1,1,1,3,3,3-hexafluoropropan-2-yl)oxy)carbonyl)piperazin-1-yl)methyl)phenyl)-1H-pyrazol-1-yl)acetic Acid], the values for the inhibition at 1 µM at MAGL [1], on MAGL [3] and on ABHD6 [4] were at least 75%, at least 75% and 0 to 25%, respectively. In addition, the IC50 was at most 0.1 µM at MAGL [1] and 1 to 10 µM at ABHD6 [2]. Besides, the inhibition at 5 mg/kg on MAGL [5] lay in the range of 0 to 25%.
